According to patent US12202835B2, “Substituted aromatic ring-linked dioxinoquinazolines and dioxinoquinolines as kinase inhibitors” (BEIJING SCITECH-MQ PHARMACEUTICALS LIMITED, priority 2018, dated 2025):

Experiments:
MER kinase = MER kinase (Homo sapiens (Human), UniProt Q12866); assay: Assay of small molecular compounds for inhibiting the activity of MER kinase (LANCE TR-FRET); type: biochemical
Summary of the method: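 MER kinase preincubated 5 min at RT with compound (11 points, 0.042-2500 nM final), then ULight-poly GT and ATP added (4× stocks 200 nM and 20 μM) for 60 min at RT, 1% DMSO. Phosphorylation detected by LANCE TR-FRET; IC50 from % inhibition versus controls.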

VEGFR-2 kinase = VEGFR-2 kinase (Homo sapiens (Human), UniProt P35968); assay: Assay of small molecular compounds for inhibiting the activity of VEGFR-2 kinase (LANCE TR-FRET); type: biochemical; details: read-out: VEGFR2 IC50
Chain of VEGFR-2 kinase (P35968 20-1356): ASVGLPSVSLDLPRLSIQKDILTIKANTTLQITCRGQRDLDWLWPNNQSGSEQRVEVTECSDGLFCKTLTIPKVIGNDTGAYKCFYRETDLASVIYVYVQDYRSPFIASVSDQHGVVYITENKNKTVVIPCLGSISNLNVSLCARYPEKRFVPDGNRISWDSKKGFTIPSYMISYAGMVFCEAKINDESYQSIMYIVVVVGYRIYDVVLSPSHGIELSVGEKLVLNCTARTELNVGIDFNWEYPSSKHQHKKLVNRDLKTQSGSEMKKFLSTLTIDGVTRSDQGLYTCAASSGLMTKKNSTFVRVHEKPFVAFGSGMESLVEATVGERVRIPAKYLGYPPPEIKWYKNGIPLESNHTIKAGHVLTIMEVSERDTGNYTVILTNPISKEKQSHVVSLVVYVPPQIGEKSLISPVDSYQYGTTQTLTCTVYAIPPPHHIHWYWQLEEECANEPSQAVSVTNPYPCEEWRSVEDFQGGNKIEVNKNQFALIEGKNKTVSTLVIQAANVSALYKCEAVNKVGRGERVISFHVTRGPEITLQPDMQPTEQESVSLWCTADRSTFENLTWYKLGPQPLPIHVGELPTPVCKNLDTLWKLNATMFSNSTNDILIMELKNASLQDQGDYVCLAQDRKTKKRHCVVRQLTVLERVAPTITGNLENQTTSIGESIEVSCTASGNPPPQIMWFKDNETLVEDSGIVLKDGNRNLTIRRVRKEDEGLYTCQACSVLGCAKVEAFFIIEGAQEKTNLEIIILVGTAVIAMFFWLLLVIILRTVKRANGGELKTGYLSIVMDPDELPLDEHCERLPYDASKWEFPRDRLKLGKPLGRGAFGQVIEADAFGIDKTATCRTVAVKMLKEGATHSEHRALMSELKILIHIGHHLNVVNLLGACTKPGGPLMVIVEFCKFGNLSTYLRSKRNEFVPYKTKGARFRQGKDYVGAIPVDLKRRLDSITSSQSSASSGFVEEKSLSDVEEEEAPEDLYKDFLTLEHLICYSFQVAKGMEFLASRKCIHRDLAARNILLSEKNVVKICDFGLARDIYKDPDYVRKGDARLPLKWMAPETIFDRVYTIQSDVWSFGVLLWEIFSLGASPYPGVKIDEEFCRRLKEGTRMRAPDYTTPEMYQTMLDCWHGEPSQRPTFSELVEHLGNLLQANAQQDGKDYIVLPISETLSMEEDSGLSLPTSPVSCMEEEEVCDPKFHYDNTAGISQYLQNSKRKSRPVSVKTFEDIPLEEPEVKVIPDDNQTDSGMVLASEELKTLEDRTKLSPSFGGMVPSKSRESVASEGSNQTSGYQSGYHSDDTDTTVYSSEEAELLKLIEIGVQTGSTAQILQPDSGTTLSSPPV
Summary of the method: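 LANCE TR-FRET with human VEGFR-2 (2× stock 0.5 nM) preincubated 30 min with compound (final 2500 to 0.042 nM, 11-point 3-fold), then ULight-JAK-1 (Tyr1023) peptide/ATP added (4× stocks 200 nM/40 μM). Reaction 60 min room temperature, 4% DMSO; IC50 from inhibition-rate curve.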

Chain of MER kinase (Q12866 21-999): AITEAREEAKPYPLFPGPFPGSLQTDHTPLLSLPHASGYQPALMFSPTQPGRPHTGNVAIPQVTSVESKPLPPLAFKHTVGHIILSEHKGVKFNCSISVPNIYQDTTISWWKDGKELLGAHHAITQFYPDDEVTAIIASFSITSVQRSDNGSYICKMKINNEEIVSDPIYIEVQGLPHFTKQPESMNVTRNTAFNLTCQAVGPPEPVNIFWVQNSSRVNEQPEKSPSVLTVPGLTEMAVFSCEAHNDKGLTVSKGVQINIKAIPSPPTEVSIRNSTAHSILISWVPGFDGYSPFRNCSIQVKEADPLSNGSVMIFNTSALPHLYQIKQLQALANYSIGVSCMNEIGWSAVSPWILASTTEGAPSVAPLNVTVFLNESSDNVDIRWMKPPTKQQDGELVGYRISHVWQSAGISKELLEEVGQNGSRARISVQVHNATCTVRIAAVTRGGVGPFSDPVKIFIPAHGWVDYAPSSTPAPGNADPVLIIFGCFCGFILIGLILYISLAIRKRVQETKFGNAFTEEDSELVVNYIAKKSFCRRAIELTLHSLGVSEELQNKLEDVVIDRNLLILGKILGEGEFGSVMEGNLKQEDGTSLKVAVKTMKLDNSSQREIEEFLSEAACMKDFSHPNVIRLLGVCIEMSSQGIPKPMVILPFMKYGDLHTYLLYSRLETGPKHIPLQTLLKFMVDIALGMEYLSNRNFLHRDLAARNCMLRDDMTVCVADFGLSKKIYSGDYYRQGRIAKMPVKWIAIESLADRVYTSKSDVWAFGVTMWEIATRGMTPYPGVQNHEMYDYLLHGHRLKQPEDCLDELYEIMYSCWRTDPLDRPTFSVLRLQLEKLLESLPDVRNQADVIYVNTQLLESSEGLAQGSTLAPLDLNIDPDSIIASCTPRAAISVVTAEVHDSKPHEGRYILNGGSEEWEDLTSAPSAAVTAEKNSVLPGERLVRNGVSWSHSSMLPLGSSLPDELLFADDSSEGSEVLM

Row | Structure (SMILES) | IC50 (MER kinase) [nM] | IC50 (VEGFR-2 kinase) [nM]
1 | CCOc1ccn(-c2ccc(F)cc2)c(=O)c1C(=O)Nc1ccc(Oc2ccnc3cc(OCC(C)(C)O)c4c(c23)OCCO4)c(F)c1 [Example 120, N-(3-fluoro-4-((5-(2-hydroxy-2-methylpropoxy)-2,3-dihydro-[1,4]dioxino[2,3-f]quinolin-10-yl)oxy)phenyl)-4-ethoxy-1-(4-fluorophenyl)-2-oxo-1,2-dihydropyridine-3-carboxamide] | ≤ 50 | 50 to 500
2 | CCOc1ccn(Cc2ccccc2)c(=O)c1C(=O)Nc1ccc(Oc2ccnc3cc(OC)c4c(c23)OCCO4)c(F)c1 [Example 117, N-(3-fluoro-4-((5-methoxy-2,3-dihydro-[1,4]dioxino[2,3-f]quinolin-10-yl)oxy)phenyl)-2-oxo-4-ethoxy-1-benzyl-1,2-dihydropyridin-3-carboxamide] | ≤ 50 | 500 to 5000
3 | O=C(Nc1ccc(Oc2ccnc3ccc4c(c23)OCCO4)cc1F)c1cccn(-c2ccc(F)cc2)c1=O [Example 170, N-(4-((2,3-dihydro-[1,4]dioxino[2,3-f]quinolin-10-yl)oxy)-2-fluorophenyl)-1-(4-fluorophenyl)-2-oxo-1,2-dihydropyridine-3-carboxamide] | ≤ 50 | 500 to 5000
4 | Cn1cc(C(=O)Nc2ccc(Oc3ccnc4cc(OCC(C)(C)O)c5c(c34)OCCO5)c(F)c2)c(=O)n(-c2ccc(F)cc2)c1=O [Example 121, N-(3-fluoro-4-((5-(2-hydroxy-2-methylpropoxy)-2,3-dihydro-[1,4]dioxino[2,3-f]quinolin-10-yl)oxy)phenyl)-3-(4-fluorophenyl)-1-methyl-2,4-dioxo-1,2,3,4-tetrahydropyrimidine-5-carboxamide] | ≤ 50 | 500 to 5000
5 | CCOc1ccn(-c2ccc(F)cc2)c(=O)c1C(=O)Nc1ccc(Oc2ccnc3cc(OCCCC#N)c4c(c23)OCCO4)cc1Cl [Example 134, N-(2-chloro-4-((5-(3-cyanopropoxy)-2,3-dihydro-[1,4]dioxino[2,3-f]quinolin-10-yl)oxy)phenyl)-1-(4-fluorophenyl)-4-ethoxy-2-oxo-1,2-dihydropyridine-3-carboxamide] | ≤ 50 | 50 to 500
6 | CC(C)n1cc(C(=O)Nc2ccc(Oc3ccnc4cc(OCCCN5CCCCC5)c5c(c34)OCCO5)c(F)c2)c(=O)n(-c2ccc(F)cc2)c1=O [Example 40, N-(3-fluoro-4-((5-(3-(piperidin-1-yl)propoxy)-2,3-dihydro-[1,4]dioxino[2,3-f]quinolin-10-yl)oxy)phenyl)-3-(4-fluorophenyl)-1-isopropyl-2,4-dioxo-1,2,3,4-tetrahydropyrimidine-5-carboxamide] | ≤ 50 | 50 to 500
7 | O=C(Nc1ccc(Oc2ccnc3cc(OCCCN4CCOCC4)c4c(c23)OCCO4)cc1Cl)c1cccn(-c2ccc(F)cc2)c1=O [Example 143, N-(2-chloro-4-((5-(3-morpholinopropoxy)-2,3-dihydro-[1,4]dioxino[2,3-f]quinolin-10-yl)oxy)phenyl)-1-(4-fluorophenyl)-2-oxo-1,2-dihydropyridine-3-carboxamide] | ≤ 50 | ≤ 50
8 | COc1ccn(-c2ccc(F)cc2)c(=O)c1C(=O)Nc1ccc(Oc2ccnc3ccc4c(c23)OCCO4)cc1F [Example 172, N-(4-((2,3-dihydro-[1,4]dioxino[2,3-f]quinolin-10-yl)oxy)-2-fluorophenyl)-1-(4-fluorophenyl)-4-methoxy-2-oxo-1,2-dihydropyridine-3-carboxamide] | ≤ 50 | > 5000
9 | CCOc1ccn(-c2ccc(F)cc2)c(=O)c1C(=O)Nc1ccc(Oc2ccnc3cc(OC)c4c(c23)OCCO4)cc1Cl [Example 126, N-(2-chloro-4-((5-methoxy-2,3-dihydro-[1,4]dioxino[2,3-f]quinolin-10-yl)oxy)phenyl)-1-(4-fluorophenyl)-4-ethoxy-2-oxo-1,2-dihydropyridine-3-carboxamide] | ≤ 50 | 50 to 500
10 | COCCN(C)CCCOc1cc2nccc(Oc3ccc(NC(=O)c4cn(C(C)C)c(=O)n(-c5ccc(F)cc5)c4=O)cc3F)c2c2c1OCCO2 [Example 95, N-(3-fluoro-4-((5-(3-((2-methoxyethyl)(methyl)amino)propoxy)-2,3-dihydro-[1,4]dioxino[2,3-f]quinolin-10-yl)oxy)phenyl)-3-(4-fluorophenyl)-1-isopropyl-2,4-dioxo-1,2,3,4-tetrahydropyrimidine-5-carboxamide] | ≤ 50 | 500 to 5000
11 | CC(C)(O)COc1cc2nccc(Oc3ccc(NC(=O)c4cccn(-c5ccc(F)cc5)c4=O)c(Cl)c3)c2c2c1OCCO2 [Example 139, N-(2-chloro-4-((5-(2-hydroxy-2-methylpropoxy)-2,3-dihydro-[1,4]dioxino[2,3-f]quinolin-10-yl)oxy)phenyl)-1-(4-fluorophenyl)-2-oxo-1,2-dihydropyridine-3-carboxamide] | ≤ 50 | 50 to 500
12 | COc1cc2nccc(Oc3ccc(NC(=O)c4cn(CC(=O)O)c(=O)n(-c5ccc(F)cc5)c4=O)cc3F)c2c2c1OCCO2 [Example 104, 2-(5-((3-fluoro-4-((5-methoxy-2,3-dihydro-[1,4]dioxino[2,3-f]quinolin-10-yl)oxy)phenyl)carbamoyl)-3-(4-fluorophenyl)-2,4-dioxo-3,4-dihydropyrimidin-1(2H)-yl)acetic acid] | ≤ 50 | > 5000
13 | COc1ccn(-c2ccc(F)cc2)c(=O)c1C(=O)Nc1ccc(Oc2ccnc3cc(OCCCC#N)c4c(c23)OCCO4)cc1Cl [Example 132, N-(2-chloro-4-((5-(3-cyanopropoxy)-2,3-dihydro-[1,4]dioxino[2,3-f]quinolin-10-yl)oxy)phenyl)-1-(4-fluorophenyl)-4-methoxy-2-oxo-1,2-dihydropyridine-3-carboxamide] | ≤ 50 | 500 to 5000
14 | CCOc1cc2nccc(Oc3ccc(NC(=O)c4c(OCC)ccn(-c5ccc(F)cc5)c4=O)c(Cl)c3)c2c2c1OCCO2 [Example 130, N-(2-chloro-4-((5-ethoxy-2,3-dihydro-[1,4]dioxino[2,3-f]quinolin-10-yl)oxy)phenyl)-1-(4-fluorophenyl)-4-ethoxy-2-oxo-1,2-dihydropyridine-3-carboxamide] | ≤ 50 | 50 to 500
15 | O=C(Nc1ccc(Oc2ccnc3ccc4c(c23)OCCO4)c(F)c1)c1cccn(-c2ccc(F)cc2)c1=O [Example 169, N-(4-((2,3-dihydro-[1,4]dioxino[2,3-f]quinolin-10-yl)oxy)-3-fluorophenyl)-1-(4-fluorophenyl)-2-oxo-1,2-dihydropyridine-3-carboxamide] | ≤ 50 | 50 to 500
16 | O=C(Nc1ccc(Oc2ccnc3cc(OCCCN4CCCCC4)c4c(c23)OCCO4)cc1Cl)c1cccn(-c2ccc(F)cc2)c1=O [Example 135, N-(2-chloro-4-((5-((3-piperidin-1-yl)propoxy)-2,3-dihydro-[1,4]dioxino[2,3-f]quinolin-10-yl)oxy)phenyl)-1-(4-fluorophenyl)-2-oxo-1,2-dihydropyridine-3-carboxamide] | ≤ 50 | ≤ 50
17 | CCOc1ccn(-c2ccc(F)cc2)c(=O)c1C(=O)Nc1ccc(Oc2ccnc3cc(OCC(C)(C)O)c4c(c23)OCCO4)cc1Cl [Example 142, N-(2-chloro-4-((5-(2-hydroxy-2-methylpropoxy)-2,3-dihydro-[1,4]dioxino[2,3-f]quinolin-10-yl)oxy)phenyl)-1-(4-fluorophenyl)-4-ethoxy-2-oxo-1,2-dihydropyridine-3-carboxamide] | ≤ 50 | 50 to 500
18 | COc1ccn(-c2ccc(F)cc2)c(=O)c1C(=O)Nc1ccc(Oc2ccnc3cc(OCC(C)(C)O)c4c(c23)OCCO4)cc1Cl [Example 140, N-(2-chloro-4-((5-(2-hydroxy-2-methylpropoxy)-2,3-dihydro-[1,4]dioxino[2,3-f]quinolin-10-yl)oxy)phenyl)-1-(4-fluorophenyl)-4-methoxy-2-oxo-1,2-dihydropyridine-3-carboxamide] | ≤ 50 | 500 to 5000
19 | CCOc1cc2nccc(Oc3ccc(NC(=O)c4c(OC)ccn(-c5ccc(F)cc5)c4=O)c(Cl)c3)c2c2c1OCCO2 [Example 128, N-(2-chloro-4-((5-ethoxy-2,3-dihydro-[1,4]dioxino[2,3-f]quinolin-10-yl)oxy)phenyl)-1-(4-fluorophenyl)-4-methoxy-2-oxo-1,2-dihydropyridine-3-carboxamide] | ≤ 50 | 500 to 5000
20 | CCOc1cc2nccc(Oc3ccc(NC(=O)c4cccn(-c5ccc(F)cc5)c4=O)c(Cl)c3)c2c2c1OCCO2 [Example 127, N-(2-chloro-4-((5-ethoxy-2,3-dihydro-[1,4]dioxino[2,3-f]quinolin-10-yl)oxy)phenyl)-1-(4-fluorophenyl)-2-oxo-1,2-dihydropyridine-3-carboxamide] | ≤ 50 | 500 to 5000
21 | CC(C)n1cc(C(=O)Nc2ccc(Oc3ccnc4cc(OCCCN5CCC(C)(O)CC5)c5c(c34)OCCO5)c(F)c2)c(=O)n(-c2ccc(F)cc2)c1=O [Example 94, N-(3-fluoro-4-((5-(3-(4-methyl-4-hydroxypiperidin-1-yl)propoxy)-2,3-dihydro-[1,4]dioxino[2,3-f]quinolin-10-yl)oxy)phenyl)-3-(4-fluorophenyl)-1-isopropyl-2,4-dioxo-1,2,3,4-tetrahydropyrimidine-5-carboxamide] | ≤ 50 | 500 to 5000
22 | CCOc1ccn(-c2ccc(F)cc2)c(=O)c1C(=O)Nc1ccc(Oc2ccnc3cc(OCCCN4CCCCC4)c4c(c23)OCCO4)cc1Cl [Example 138, N-(2-chloro-4-((5-((3-piperidin-1-yl)propoxy)-2,3-dihydro-[1,4]dioxino[2,3-f]quinolin-10-yl)oxy)phenyl)-1-(4-fluorophenyl)-4-ethoxy-2-oxo-1,2-dihydropyridine-3-carboxamide] | ≤ 50 | ≤ 50
